Laboratory results as given in patent US8461328B2, “Tricyclic heterocyclic compounds, compositions and methods of use thereof” (Genentech, Inc., priority 2010, dated 2013).
Where a name gives a salt, the structure may show the parent alone.

Experiments:
Format in all cases: biochemical
JAK1 = target: T1, JAK1 (Homo sapiens, UniProt P23458); test: JAK1 inhibition (Table 4); conditions: read-out: JAK1 Ki
T1 construct: made in house; host or cells: SF9 insect cells (baculovirus)

JAK2 = target: T2, JAK2 (Homo sapiens, UniProt O60674); test: JAK2 inhibition (Table 4); conditions: read-out: JAK2 Ki
T2 construct: made in house; host or cells: SF9 insect cells (baculovirus)
T2 sequence (O60674 812-1132): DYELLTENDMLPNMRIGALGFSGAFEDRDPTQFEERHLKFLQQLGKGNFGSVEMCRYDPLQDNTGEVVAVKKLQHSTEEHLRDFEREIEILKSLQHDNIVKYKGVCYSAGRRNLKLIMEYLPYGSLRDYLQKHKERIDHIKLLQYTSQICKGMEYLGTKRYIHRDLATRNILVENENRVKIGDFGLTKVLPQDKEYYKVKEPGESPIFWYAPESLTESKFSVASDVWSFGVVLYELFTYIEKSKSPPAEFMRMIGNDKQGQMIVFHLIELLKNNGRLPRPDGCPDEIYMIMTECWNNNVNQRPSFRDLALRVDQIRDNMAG

JAK3 = target: T3, JAK3 (Homo sapiens, UniProt P52333); test: JAK3 inhibition (Table 4); conditions: read-out: JAK3 Ki
T3 construct: made in house; host or cells: SF9 insect cells (baculovirus)
T3 sequence (P52333 783-1124): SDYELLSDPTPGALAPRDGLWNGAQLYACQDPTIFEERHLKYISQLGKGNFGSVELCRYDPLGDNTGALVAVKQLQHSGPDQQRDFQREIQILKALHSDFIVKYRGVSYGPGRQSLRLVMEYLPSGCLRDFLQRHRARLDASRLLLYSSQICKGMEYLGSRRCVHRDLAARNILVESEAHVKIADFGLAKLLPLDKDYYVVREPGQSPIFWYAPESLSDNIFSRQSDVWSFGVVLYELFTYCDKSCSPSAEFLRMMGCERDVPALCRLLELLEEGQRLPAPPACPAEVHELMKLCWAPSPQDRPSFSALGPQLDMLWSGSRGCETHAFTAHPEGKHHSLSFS

TYK2 = target: T4, TYK2 (Homo sapiens, UniProt P29597); test: TYK2 inhibition (Table 4)
T4 construct: made in house; host or cells: SF9 insect cells (baculovirus)
T4 sequence (P29597 873-1187): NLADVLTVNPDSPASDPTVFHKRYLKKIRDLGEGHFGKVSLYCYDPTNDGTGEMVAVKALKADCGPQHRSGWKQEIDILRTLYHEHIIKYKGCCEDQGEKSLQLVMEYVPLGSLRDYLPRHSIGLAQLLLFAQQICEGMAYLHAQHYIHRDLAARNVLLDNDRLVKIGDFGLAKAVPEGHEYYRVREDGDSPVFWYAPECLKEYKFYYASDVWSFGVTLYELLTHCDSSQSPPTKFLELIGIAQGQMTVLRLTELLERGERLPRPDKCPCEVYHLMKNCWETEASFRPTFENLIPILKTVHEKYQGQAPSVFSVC

T1 sequence (P23458 852-1154): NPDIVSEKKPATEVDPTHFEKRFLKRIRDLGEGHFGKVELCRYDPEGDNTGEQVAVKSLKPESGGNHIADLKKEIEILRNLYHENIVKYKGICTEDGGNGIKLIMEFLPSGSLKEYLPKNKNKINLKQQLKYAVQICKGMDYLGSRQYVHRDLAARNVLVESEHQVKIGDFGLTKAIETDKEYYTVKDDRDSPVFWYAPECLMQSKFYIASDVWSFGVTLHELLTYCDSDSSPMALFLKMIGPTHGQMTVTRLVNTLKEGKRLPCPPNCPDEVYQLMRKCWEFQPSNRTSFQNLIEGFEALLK

Compound	Ki (JAK1)	Ki (JAK2)	Ki (JAK3)	Ki (TYK2)
COC1CNCCC1n1nnc2cnc3[nH]ccc3c21 (racemic) [Example 536, 1-(3-Methoxy-piperidin-4-yl)-1,6-dihydro-1,2,3,5,6-pentaaza-as-indacene]	0.0325 µM	0.0612 µM	1.02 µM	0.235 µM
COC1CNCCC1n1cnc2cnc3[nH]ccc3c21 (racemic) [Example 537, 1-(3-Methoxy-piperidin-4-yl)-1,6-dihydro-1,3,5,6-tetraaza-as-indacene]	0.0252 µM	0.0338 µM	0.322 µM	0.122 µM
COC1CN(CCC#N)CCC1n1c(C)nc2cnc3[nH]ccc3c21 (racemic) [Example 538, 3-[3-Methoxy-4-(2-methyl-6H-1,3,5,6-tetraaza-as-indacen-1-yl)-piperidin-1-yl]-propionitrile]	0.00086 µM	0.00089 µM	0.00401 µM	0.00866 µM
COCCN1CCC(n2c(C(C)O)nc3cnc4[nH]ccc4c32)CC1 (racemic) [Example 539, 1-{1-[1-(2-Methoxy-ethyl)-piperidin-4-yl]-1,6-dihydro-1,3,5,6-tetraaza-as-indacen-2-yl}-ethanol]	0.0127 µM	0.194 µM	0.0974 µM	0.352 µM
Cc1nc2cnc3[nH]ccc3c2n1[C@H]1CC[C@H](N2CCC(O)C2)CC1 (mixture of isomers) [Example 597, Racemic trans 1-[4-(2-Methyl-6H-1,2,3,5,6-tetraaza-as-indacen-1-yl)-cyclohexyl]-pyrrolidin-3-ol]	0.0308 µM	0.126 µM	0.823 µM	0.497 µM
COCCNC1CCC(n2nnc3cnc4[nH]ccc4c32)C1 (racemic) [Example 618, Racemic trans (2-methoxy-ethyl)-[3-(6H-1,2,3,5,6-pentaaza-as-indacen-1-yl)-cyclopentyl]-amine hydrochloride]	0.138 µM	0.446 µM	0.942 µM	1.44 µM
O=C(NC1CCC(n2nnc3cnc4[nH]ccc4c32)C1)OCC(F)(F)F (racemic) [Example 620, Racemic trans [3-(6H-1,2,3,5,6-Pentaaza-as-indacen-1-yl)-cyclopentyl]-carbamic acid 2,2,2-trifluoro-ethyl ester]	0.00164 µM	0.00815 µM	0.0205 µM	0.0914 µM
COC(=O)NC1CCC(n2nnc3cnc4[nH]ccc4c32)C1 (racemic) [Example 621, Racemic trans [3-(6H-1,2,3,5,6-Pentaaza-as-indacen-1-yl)-cyclopentyl]-carbamic acid methyl ester]	0.00878 µM	0.0232 µM	0.148 µM	0.124 µM
CN(CC(F)(F)F)C(=O)NC1CCC(n2nnc3cnc4[nH]ccc4c32)C1 (racemic) [Example 622, Racemic trans 1-Methyl-3-[3-(6H-1,2,3,5,6-pentaaza-as-indacen-1-yl)-cyclopentyl]-1-(2,2,2-trifluoro-ethyl)-urea]	0.009 µM	0.0124 µM	0.0195 µM	0.233 µM
Cc1nc2cnc3[nH]ccc3c2n1C1CCC(NCC(F)(F)F)C1 (racemic) [Example 626, Racemic trans [3-(2-Methyl-6H-1,2,3,5,6-tetraaza-as-indacen-1-yl)-cyclopentyl]-(2,2,2-trifluoro-ethyl)-amine]	0.00204 µM	0.0064 µM	0.0337 µM	0.00938 µM
Cc1nc2cnc3[nH]ccc3c2n1C1CCC(NCCC#N)C1 (racemic) [Example 627, Racemic trans 3-[3-(2-methyl-6H-1,2,3,5,6-tetraaza-as-indacen-1-yl)-cyclopentylamino]-propionitrile]	0.00136 µM	0.00591 µM	0.014 µM	0.0127 µM
COCCNC1CCC(n2c(C)nc3cnc4[nH]ccc4c32)C1 (racemic) [Example 628, Racemic trans (2-methoxy-ethyl)-[3-(2-methyl-6H-1,2,3,5,6-tetraaza-as-indacen-1-yl)-cyclopentyl]-amine]	0.0431 µM	0.375 µM	0.798 µM	0.974 µM
N#CCC(=O)NC1CCC(n2cnc3cnc4[nH]ccc4c32)C1 (racemic) [Example 629, Racemic trans 2-cyano-N-[3-(6H-1,2,3,5,6-tetraaza-as-indacen-1-yl)-cyclopentyl]-acetamide]	0.00136 µM	0.00499 µM	0.011 µM	0.032 µM
CS(=O)(=O)NC1CCC(n2cnc3cnc4[nH]ccc4c32)C1 (racemic) [Example 630, Racemic trans N-[3-(6H-1,2,3,5,6-tetraaza-as-indacen-1-yl)-cyclopentyl]-methanesulfonamide]	0.00259 µM	0.00662 µM	0.0184 µM	0.0258 µM
C[C@@H](O)c1nc2cnc3[nH]ccc3c2n1C1CCCC(C#N)C1 (mixture of isomers) [Example 648, Racemic cis 3-[2-((R)-1-Hydroxy-ethyl)-6H-1,2,3,5,6-tetraaza-as-indacen-1-yl]-cyclohexanecarbonitrile]	0.00606 µM	0.0724 µM	0.119 µM	0.0268 µM
CC1(n2cnc3cnc4[nH]ccc4c32)CCCN(C(=O)CC#N)C1 (racemic) [Example 706, 3-[3-Methyl-3-(6H-1,2,3,5,6-tetraaza-as-indacen-1-yl)-piperidin-1-yl]-3-oxo-propionitrile]	0.0281 µM	0.0675 µM	0.0206 µM	0.207 µM
c1nc2c([nH]1)CCC(n1cnc3cnc4[nH]ccc4c31)C2 (racemic) [Example 707, 1-(4,5,6,7-Tetrahydro-3H-benzoimidazol-5-yl)-1,6-dihydro-1,2,3,5,6-tetraaza-as-indacene]	0.0745 µM	0.123 µM	0.112 µM	0.391 µM
FC(F)(F)CNC1CCC(n2cnc3cnc4[nH]ccc4c32)C1 (racemic) [Example 717, [3-(6H-1,3,5,6-tetraaza-as-indacen-1-yl)-cyclopentyl]-(2,2,2-trifluoro-ethyl)-amine]	0.00611 µM	0.0133 µM	0.0597 µM	0.035 µM
FC(F)(F)CNC1CCC(n2nnc3cnc4[nH]ccc4c32)C1 (racemic) [Example 718, [3-(6H-1,2,3,5,6-Pentaaza-as-indacen-1-yl)-cyclopentyl]-(2,2,2-trifluoro-ethyl)-amine]	0.0103 µM	0.0208 µM	0.143 µM	0.0831 µM
Cc1nc2cnc3[nH]ccc3c2n1C1CCC(NS(C)(=O)=O)C1 (racemic) [Example 721, N-[3-(2-methyl-6H-1,3,5,6-tetraaza-as-indacen-1-yl)-cyclopentyl]-methanesulfonamide]	0.00109 µM	0.00404 µM	0.0142 µM	0.0134 µM
COCCNC1CCC(n2cnc3cnc4[nH]ccc4c32)C1 (racemic) [Example 726, (2-Methoxy-ethyl)-[3-(6H-1,3,5,6-tetraaza-as-indacen-1-yl)-cyclopentyl]-amine]	0.176 µM	0.785 µM	0.754 µM	2.22 µM
Cc1nc2cnc3[nH]ccc3c2n1C1CCC(NC(=O)CC#N)C1 (racemic) [Example 728, 2-Cyano-N-[3-(2-methyl-6H-1,3,5,6-tetraaza-as-indacen-1-yl)-cyclopentyl]-acetamide]	0.00152 µM	0.00624 µM	0.00226 µM	0.0224 µM
O=C(CC(F)(F)F)NC1CCC(n2cnc3cnc4[nH]ccc4c32)C1 (racemic) [Example 729, 3,3,3-Trifluoro-N-[3-(6H-1,3,5,6-tetraaza-as-indacen-1-yl)-cyclopentyl]-propionamide]	0.002 µM	0.00979 µM	0.0135 µM	0.0489 µM
Cc1nc2cnc3[nH]ccc3c2n1C1CCC(NC(=O)CC(F)(F)F)C1 (racemic) [Example 730, 3,3,3-Trifluoro-N-[3-(2-methyl-6H-1,3,5,6-tetraaza-as-indacen-1-yl)-cyclopentyl]-propionamide]	0.00149 µM	0.00724 µM	0.00187 µM	0.0211 µM
O=C(CCC(F)(F)F)NC1CCC(n2cnc3cnc4[nH]ccc4c32)C1 (racemic) [Example 732, 4,4,4-Trifluoro-N-[3-(6H-1,3,5,6-tetraaza-as-indacen-1-yl)-cyclopentyl]-butyramide]	0.00285 µM	0.00859 µM	0.0162 µM	0.0647 µM
Cc1nc2cnc3[nH]ccc3c2n1C1CCC(NC(=O)N(C)CC(F)(F)F)C1 (racemic) [Example 736, 1-Methyl-3-[3-(2-methyl-6H-1,3,5,6-tetraaza-as-indacen-1-yl)-cyclopentyl]-1-(2,2,2-trifluoro-ethyl)-urea]	0.00128 µM	0.00642 µM	0.00079 µM	0.0572 µM
CN(CC(F)(F)F)C(=O)NC1CCC(n2cnc3cnc4[nH]ccc4c32)C1 (racemic) [Example 737, 1-Methyl-3-[3-(6H-1,3,5,6-tetraaza-as-indacen-1-yl)-cyclopentyl]-1-(2,2,2-trifluoro-ethyl)-urea]	0.00453 µM	0.00844 µM	0.00719 µM	0.107 µM
COCCN(C)C(=O)NC1CCC(n2c(C)nc3cnc4[nH]ccc4c32)C1 (racemic) [Example 738, 1-(2-Methoxy-ethyl)-1-methyl-3-[3-(2-methyl-6H-1,3,5,6-tetraaza-as-indacen-1-yl)-cyclopentyl]-urea]	0.0116 µM	0.0491 µM	0.0809 µM	0.351 µM
